According to article PMC3205184, “Competitive binding at a nicotinic receptor transmembrane site of two α7-selective positive allosteric modulators with differing effects on agonist-evoked desensitization” (Neuropharmacology, 2011):

Biological target: T1, α7 nicotinic acetylcholine receptor (α7 nAChR) (Rattus norvegicus, UniProt Q05941)
T1 construct: gene Chrna7
Test: two-electrode voltage clamp in Xenopus oocytes; potentiation of EC20 acetylcholine responses, with site-directed mutants
Assay type: cell-based

T1 sequence (Q05941 23-502): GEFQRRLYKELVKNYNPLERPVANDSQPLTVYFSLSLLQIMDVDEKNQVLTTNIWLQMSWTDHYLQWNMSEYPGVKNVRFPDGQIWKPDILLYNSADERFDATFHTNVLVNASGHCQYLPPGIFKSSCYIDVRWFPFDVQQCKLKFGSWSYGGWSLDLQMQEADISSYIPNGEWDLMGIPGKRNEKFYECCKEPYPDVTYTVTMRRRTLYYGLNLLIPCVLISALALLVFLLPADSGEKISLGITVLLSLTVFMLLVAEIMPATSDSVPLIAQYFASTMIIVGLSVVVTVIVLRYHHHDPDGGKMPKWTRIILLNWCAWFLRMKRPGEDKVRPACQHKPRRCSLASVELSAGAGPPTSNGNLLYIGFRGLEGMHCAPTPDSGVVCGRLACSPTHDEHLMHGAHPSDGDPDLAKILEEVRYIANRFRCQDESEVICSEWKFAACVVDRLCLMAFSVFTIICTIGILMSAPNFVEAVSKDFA

O=C(Nc1cc(Cl)ccc1O)Nc1cc(C(F)(F)F)ccc1Cl [NS1738]
EC50: 6.7 ± 1.8 µM
